One data set relates to CDK12 and CDK13 proteins. Kind of data set: Degradation activity on CDK12/13 in 22RV1 cells (Western Blot). Type of data set: cell-based. Conditions: 22RV1 cells; for degradation of CDK12 and CDK13 protein levels in cells: 500 nM, 6 hours, WB (FIG. 4); for degradation of CDK12 and CDK13 proteins: 100 nM, 6 h (FIG. 5); for dose dependence of degradation of CDK12 and CDK13 proteins: different concentrations, 6 h (FIG. 4B, FIG. 5). The procedure:
Experimental methods: The cell line, 22RV1 cell line was purchased from the American Type Culture Collection (ATCC). Conventional Western Blot was used for detection as follows: 22RV1 cells were seeded in a certain number in a 12-well plate, and cultured overnight in an incubator in an adherent manner. […] The cells were lysed with a lysis buffer, and samples were collected. Then, an appropriate amount of the samples was taken for SDS-PAGE electrophoresis. After electrophoresis, the proteins were transferred to nitrocellulose membranes using a semi-dry electro-transfer system. The nitrocellulose membrane was placed in a blocking solution (5% skim milk powder diluted in TBS containing 0.1% Tween 20) and blocked at room temperature for 2 h. The membranes were then placed in a primary antibody solution (1: 1000 diluted in TBS containing 0.1% Tween 20), respectively, and incubated at 4°C overnight. The cells were washed three times with TBS containing 0.1% Tween 20, each time for 15 min. The membrane was placed in a secondary antibody solution (horseradish peroxidase-labeled goat anti-rabbit IgG, diluted at 1:1000 in TBS containing 0.1% Tween 20) and reacted at room temperature for 1 h. After washing the membrane three times as above, the membrane was developed with ECL plus reagent and photographed using Amersham Imager 600 system.
Background: Immunoblotting shows a protein as a band on a membrane.

Data set [1] in a line: Pharmacokinetics and bioavailability test in rats (Example 60). Format: in vivo. Conditions: SD rats; for F: bioavailability calculated from AUC; for oral pharmacokinetic properties: summary in words of Tables 2-6; for Cmax / Tmax / half-life / clearance: rat. As to the method:
Pharmacokinetics and bioavailability tests in rats. SD rats were given a single oral (10 mg/kg), intravenous (2.5 mg/kg) and intraperitoneal (10 mg/kg) dose, followed by animal blood sample collection at appropriate time points. Heparin was added for anticoagulation, and the samples were centrifuged at 8000 rpm for 6 min. The supernatant was collected and stored at -20°C for HPLC-MS analysis. The blood samples underwent protein precipitation with acetonitrile at 12 000 rpm * 10 min, and the supernatant was used for HPCL-MS analysis. The data underwent parameter fitting with DAS2.0, to obtain compartmental model and non-compartmental model parameters, respectively. The oral bioavailability of the compounds was calculated based on the area under the plasma concentration-time curve (AUC) data. […] Table 2. Pharmacokinetic experimental results of compounds YJZ9069 and YJZ1102

In data set [2] the test system is prostate cancer VCap cells. Kind of data set: Proliferation-inhibiting activity on VCap cells (CellTiter-Glo). Type of data set: cell-based. The conditions noted are these: Homo sapiens; VCap cell line, CellTiter-Glo (FIG. 6). The procedure: The cell proliferation-inhibiting activity of the compounds was determined using the CellTiter-Glo Luminescent Cell Viability Assay (Promega, Madison, WI). The cells were seeded in a 96-well plate in their respective culture media and incubated at 37°C in a 5% CO2 incubator. After overnight incubation, serial dilutions of the compounds were prepared and added to the 96-well plate. A volume of CellTiter-Glo reagent equal to the volume of the cell culture medium present in each well was added (e.g., 100 microliters of the reagent was added to 100 microliters of the culture medium for the cells in the 96-well plate). The contents were mixed on an orbital shaker for 2 min to induce cell lysis. The 96-well plate was incubated at room temperature for 10 minutes to stabilize a luminescent signal. Luminescence was recorded: the luminescence signal of each well was acquired using an Infinite M1000 Pro plate reader (Tecan, Zürich, Switzerland), and the data were analyzed using GraphPad Prism software (GraphPad Software Inc, La Jolla, CA).

The mark [3] stands for this setting: Sprague-Dawley, plasma, IV 2.5 mg/kg.
Where [4] appears, read: Sprague-Dawley, plasma, PO 10 mg/kg.

Data on 7 compounds can be found in patent EP4671239A1, “ARYL SUBSTITUENT-CONTAINING DEGRADATION AGENT FOR CDK12/13, PREPARATION METHOD THEREFOR, AND PHARMACEUTICAL COMPOSITION AND USE THEREOF” (Shanghai Institute of Organic Chemistry, Chinese Academy of …, priority 2023, dated 2024).

Structures are written as SMILES. pIC50: −log10 of the molar value.

For `O=C1CCC(N2C(=O)c3ccc(N4CC(CN5CCN(c6ccc(N(C(=O)NCc7ccccc7)[C@H]7CC[C@H](Nc8ncc9ccccc9n8)CC7)cc6)CC5)C4)cc3C2=O)C(=O)N1` (stereo partly drawn) [YJZ1102], the “degradation of CDK12 and CDK13 protein levels in cells” value (shortened to “degradation … in cells”) in the data set on CDK12 and CDK13 proteins is given as “effectively degrade”. Further, the F in data set [1] (IP 10 mg/kg) is 94.15%. In addition, the F in data set [1] (PO 10 mg/kg) is listed as 17.28%. Moreover, in data set [1], the oral pharmacokinetic properties entry is listed as “excellent”. In addition, in data set [1] (in vivo, IP 10 mg/kg), the Cmax amounted to 662 ng/mL, the Tmax worked out at 6.67 h and the half-life was 26.4 h. For the same compound, in data set [1] (in vivo, IV 2.5 mg/kg), the peak level (Cmax) was 2200 ng/mL, the Tmax stood at 0.08 h, the clearance was 3.32 mL/min/kg and the half-life is 10.7 h. Further, in data set [1] (in vivo, PO 10 mg/kg), the Cmax was 148 ng/mL, the time of peak concentration (Tmax) is 6 h and the half-life is 10.4 h. The compound also gave a pIC50 in data set [2] of 7.79.

For `O=C1CCC(N2C(=O)c3ccc(N4CCC(N5CCN(c6ccc(N(C(=O)NCc7ccccc7F)[C@H]7CC[C@H](Nc8ncc9ccccc9n8)CC7)cc6)CC5)CC4)cc3C2=O)C(=O)N1` (stereo partly drawn) [YJZ1203], in the data set with CDK12 and CDK13 proteins, the “degradation of CDK12 and CDK13 proteins” value was “almost completely degrade”; the “degradation … in cells” value was “effectively degrade”; the “dose dependence of degradation of CDK12 and CDK13 proteins” value (“dose dependence” below) is reported as “dose-dependent manner”. Besides, the F in data set [1] (PO 10 mg/kg) is 16.95%. The oral pharmacokinetic properties result in data set [1] is listed as “excellent”. Moreover, in data set [1] (setting [3]), the peak level (Cmax) was 3060 ng/mL, the Tmax is 0.08 h, the clearance is 5.22 mL/min/kg and the half-life is 6.19 h. Further, in data set [1] (setting [4]), the Cmax was determined as 382 ng/mL, the time of peak concentration (Tmax) was 6.7 h and the half-life was 6.4 h. This compound also had a pIC50 in data set [2] of 7.73.

For `O=C1CCC(N2C(=O)c3cc(F)c(N4CCC(N5CCN(c6ccc(N(C(=O)NCc7ccccc7)[C@H]7CC[C@H](Nc8ncc9ccccc9n8)CC7)cc6)CC5)CC4)cc3C2=O)C(=O)N1` (stereo partly drawn) [YJZ1201], in the data set with CDK12 and CDK13 proteins, the “degradation of CDK12 and CDK13 proteins” value is listed as “almost completely degrade”; the “degradation … in cells” value was “effectively degrade”; the “dose dependence” value is recorded as “dose-dependent manner”. Besides, in data set [1] (PO 10 mg/kg), the F is listed as 39.60%. Further, the oral pharmacokinetic properties result in data set [1] is recorded as “excellent”. Moreover, in data set [1] (setting [3]), the peak concentration (Cmax) is 2510 ng/mL, the time to peak (Tmax) came to 0.08 h, the clearance was 3.27 mL/min/kg and the half-life was 10.8 h. In data set [1] (setting [4]), the maximum concentration (Cmax) was 1040 ng/mL, the Tmax was 6.67 h and the half-life is 12.4 h. The compound further gave a pIC50 in data set [2] of 7.19.

With `O=C1CCC(N2C(=O)c3ccc(N4CCC(N5CCN(c6ccc(N(C(=O)NCc7ccccc7)[C@H]7CC[C@H](Nc8ncc9ccccc9n8)CC7)cc6F)CC5)CC4)cc3C2=O)C(=O)N1` (stereo partly drawn) [YJZ1204, 3-benzyl-1-(4-(4-(1-(2-(2,6-dioxopiperidin-3-yl)-1,3-dioxoisoindole-5-yl)piperidin-4-yl)-piperazin-1-yl)-3-fluorophenyl)-1-((1r,4r)-4-(quinazolin-2-ylamino)cyclohexyl)urea], in the data set with CDK12 and CDK13 proteins, the “degradation of CDK12 and CDK13 proteins” value is “almost completely degrade”; the “degradation … in cells” value was “effectively degrade”; the “dose dependence” value is “dose-dependent manner”. Moreover, the F in data set [1] (PO 10 mg/kg) is 30.13%. For the same compound, in data set [1], the oral pharmacokinetic properties result is given as “excellent”. Also, in data set [1] (setting [3]), the peak level (Cmax) was 2290 ng/mL, the Tmax came out at 0.08 h, the clearance was 6.01 mL/min/kg and the half-life is 8.54 h. Moreover, in data set [1] (setting [4]), the maximum concentration (Cmax) amounted to 457 ng/mL, the Tmax was 7.33 h and the half-life is 10.8 h. Besides, the pIC50 in data set [2] was 7.63.

As for `O=C1CCC(N2C(=O)c3ccc(N4CCC(CN5CCN(c6ccc(N(C(=O)NCc7ccccc7)[C@H]7CC[C@H](Nc8ncc9ccccc9n8)CC7)cc6)CC5)CC4)cc3C2=O)C(=O)N1` (stereo partly drawn) [YJZ1097, 3-benzyl-1-(4-(4-((1-(2-(2,6-dioxopiperidin-3-yl)-1,3-dioxoisoindole-5-yl)piperidin-4-yl)methyl)piperazin-1-yl)phenyl)-1-((1r,4r)-4-(quinazolin-2-ylamino)cyclohexyl)urea], in the data set with CDK12 and CDK13 proteins, the “degradation of CDK12 and CDK13 proteins” value is reported as “almost completely degrade”; the “degradation … in cells” value was “effectively degrade”; the “dose dependence” value is on record as “dose-dependent manner”. Moreover, the F in data set [1] (PO 10 mg/kg) is given as 23.89%. For the same compound, the oral pharmacokinetic properties entry in data set [1] is “excellent”. In addition, in data set [1] (setting [3]), the Cmax worked out at 2490 ng/mL, the Tmax is 0.08 h, the clearance was 3.12 mL/min/kg and the half-life was 13.8 h. Moreover, in data set [1] (setting [4]), the peak level (Cmax) was 593 ng/mL, the time of peak concentration (Tmax) turned out to be 6.7 h and the half-life was 15.2 h. Also, in data set [2], the negative logarithm of the IC50 (pIC50) is 8.41.

In the case of `O=C1CCC(N2C(=O)c3ccc(N4CCC(N5CCN(c6ccc(N(C(=O)NCc7ccccc7)[C@H]7CC[C@H](Nc8ncc9ccccc9n8)CC7)cn6)CC5)CC4)cc3C2=O)C(=O)N1` (stereo partly drawn) [YJZ1205], in the data set with CDK12 and CDK13 proteins, the “degradation of CDK12 and CDK13 proteins” value is on record as “almost completely degrade”; the “degradation … in cells” value is listed as “effectively degrade”; the “dose dependence” value is given as “dose-dependent manner”. The F in data set [1] (PO 10 mg/kg) was 15.87%. Further, the oral pharmacokinetic properties result in data set [1] is listed as “excellent”. In data set [1] (setting [3]), the maximum concentration (Cmax) came to 3620 ng/mL, the Tmax amounted to 0.08 h, the clearance was 3.93 mL/min/kg and the half-life is 3.81 h. In addition, in data set [1] (setting [4]), the Cmax was 581 ng/mL, the Tmax was determined as 4.7 h and the half-life is 4.2 h. Also, the negative logarithm of the IC50 (pIC50) in data set [2] is 7.87.

As to `O=C1CCC(N2C(=O)c3ccc(N4CCN(C5CCN(c6ccc(N(C(=O)NCc7ccccc7)[C@H]7CC[C@H](Nc8ncc9ccccc9n8)CC7)cc6)CC5)CC4)cc3C2=O)C(=O)N1` (stereo partly drawn) [YJZ1202, 3-benzyl-1-(4-(4-(2-(2,6-dioxopiperidin-3-yl)-1,3-dioxoisoindole-5-yl)piperazin-1-yl)piperidin-1-ylphenyl)-1-((1r,4r)-4-(quinazolin-2-ylamino)cyclohexyl)urea], in the data set with CDK12 and CDK13 proteins, the “degradation of CDK12 and CDK13 proteins” value was “almost completely degrade”; the “degradation … in cells” value is given as “effectively degrade”; the “dose dependence” value is reported as “dose-dependent manner”. The F in data set [1] (PO 10 mg/kg) is reported as 13.51%. Besides, the oral pharmacokinetic properties entry in data set [1] is given as “excellent”. Besides, in data set [1] (in vivo, IV 2.5 mg/kg), the Cmax was 2310 ng/mL, the time of peak concentration (Tmax) was 0.08 h, the clearance is 6.7 mL/min/kg and the half-life is 4.13 h. Further, in data set [1] (in vivo, PO 10 mg/kg), the peak concentration (Cmax) amounted to 291 ng/mL, the Tmax came out at 5.33 h and the half-life was 3.76 h. This compound also had a pIC50 in data set [2] of 7.76.

In general, Cmax refers to the highest concentration seen after dosing. Usually Tmax stands for the time at which the peak concentration occurs. By half-life is commonly meant the time needed for the level to fall by half in the phase considered. The low end stands for rapid decline, the high end for slow decline. Broadly, the clearance is a measure of how efficiently the substance is removed, as volume per time. A high value points to a high capacity for elimination. A word on the pIC50: it is the negative decadic logarithm of the IC50, by convention in mol/L.
